Data reported in US12612412B2, “Antiviral heterocyclic compounds” (Enanta Pharmaceuticals, Inc., priority 2021, dated 2026).
Where two headings read alike, the source gives them in different places.

Key:
[1] = test system: HMPV clinical isolate TN/1501/A1; assay: HMPV antiviral assay Method-B (clinical isolate TN/1501/A1 in LLC-MK2 cells, ATP-Lite readout); format: cell-based, Human metapneumovirus (HMPV); conditions: human metapneumovirus, LLC-MK2, 144 h, hMPV WT1501 (clinical isolate TN/1501/A1), 6 days
Summary of the method: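 LLC-MK2 cells infected in suspension with TN/1501/A1 at MOI 0.014 in serum-free medium with 2 μg/mL TPCK-trypsin (final), incubated 6 days at 37° C. Compounds tested in duplicate, 10-point 3-fold dilutions from 10 μM. Cell health read by ATP-Lite luminescence, normalised to virus-only and cells-only controls; EC50 by four-parameter logistic fit.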

[2] = test system: genotype A, "Long" strain RSV; assay: RSV-A assay (CPE protection in Hep-2 cells, ATPlite readout); format: cell-based, Human respiratory syncytial virus (HRSV); conditions: human respiratory syncytial virus, MOI 0.1, CPE protection
Summary of the method: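 Protection from RSV-induced cytopathic effect measured by ATP content (ATPlite) after 5-day culture. Infection used genotype A Long virus at MOI 0.1 on 8,000 Hep-2 cells per well, with compound serially diluted 2-fold; values are EC50.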

[3] = RSV-A Long strain, read-out: Human RSV-A (“Long”) EC50
[4] = genotype A “Long” strain RSV, read-out: Human RSV-A (“Long”)

EC50 [1]	EC50 [2, 3]	EC50 [2, 4]	SMILES
< 500 nM	< 200 nM		COc1cc(C(=O)NC[C@](O)(c2cc3c(c(-c4ccc(F)c(Cl)c4)n2)OC[C@]3(C)C(N)=O)C2CC2)cc2cn(C3(F)CC3)nc12 [Example 836]
< 500 nM	< 200 nM		COc1cc(C(=O)NC[C@](O)(c2cc3c(c(-c4cc(Cl)c(F)cc4F)n2)OC[C@]3(C)C(N)=O)C(F)(F)F)cc2cn(C3CC3)nc12 [Example 952]
< 500 nM	< 200 nM		CNC(=O)[C@@]1(C)COc2c1cc([C@@](O)(CNC(=O)c1cc(OC)c3nn(C4CC4)cc3c1)C(F)(F)F)nc2-c1ccc(F)cc1 [Example 1190]
< 500 nM	< 200 nM		COc1cc(C(=O)NC[C@](O)(c2cc3c(c(-c4ccc(F)cc4Cl)n2)OC[C@]3(C)C(N)=O)C(F)(F)F)cc2cn(C3CC3)nc12 [Example 993]
< 500 nM	< 200 nM		COc1cc(C(=O)NC[C@](O)(c2cc3c(c(-c4ccccc4Cl)n2)OC[C@]3(C)C(N)=O)C(F)(F)F)cc2cn(C3CC3)nc12 [Example 1248]
< 500 nM	< 200 nM		COc1cc(C(=O)NC[C@](O)(c2cc3c(c(-c4cccc(F)c4Cl)n2)OC[C@]3(C)C(N)=O)C(F)(F)F)cc2cn(C(F)F)nc12 [Example 1120]
< 500 nM		< 200 nM	COc1cc(C(=O)NC[C@](O)(c2cc3c(c(-c4cccc(F)c4Cl)n2)OC[C@]3(C)C(N)=O)C(F)(F)F)cc2cn(C3CC3)nc12 [Example 761]
< 500 nM		< 200 nM	COc1cc(C(=O)NC[C@](O)(c2cc3c(c(-c4ccc(C(F)(F)F)cc4)n2)OC[C@]3(C)C(N)=O)C2CC2)cc2cn(C3CC3)nc12 [Example 793]
< 500 nM		< 200 nM	COc1cc(C(=O)NC[C@](O)(c2cc3c(c(-c4ccc(F)c(F)c4Cl)n2)OC[C@]3(C)C(N)=O)C2CC2)cc2cn(C(F)F)nc12 [Example 563]
< 500 nM		< 200 nM	COc1cc(C(=O)NC[C@](O)(c2cc3c(c(-c4ccc(F)c(F)c4Cl)n2)OC[C@]3(C)C(N)=O)C(F)(F)F)cc2cc(Br)cnc12 [Example 778]
< 500 nM	< 200 nM		COc1cc(C(=O)NCC(O)(c2cc3c(c(-c4cc(F)c(F)c(F)c4)n2)OC[C@]3(C)C(N)=O)C(F)(F)F)cc2cn(C3CC3)nc12 (stereo partly shown) [Example 916]
< 500 nM		< 200 nM	COc1cc(C(=O)NC[C@](O)(c2cc3c(c(-c4ccc(C(F)(F)F)cc4)n2)OC[C@]3(C)C(N)=O)C2CC2)cc2cn(C3(F)CC3)nc12 [Example 794]
< 500 nM		< 200 nM	COc1cc(C(=O)NC[C@](O)(c2cc3c(c(-c4ccc(F)cc4Cl)n2)OC[C@]3(C)C(N)=O)C(F)(F)F)cc2cc(Br)cnc12 [Example 521]
< 500 nM	< 200 nM		COc1cc(C(=O)NC[C@](O)(c2cc3c(c(-c4cc(F)ccc4Cl)n2)OC[C@]3(C)C(N)=O)C(F)(F)F)cc2cn(C3CC3)nc12 [Example 991]
< 500 nM	< 200 nM		Cc1nc2c(OC3CC3)cc(C(=O)NC[C@](O)(c3cc4c(c(-c5ccc(F)cc5)n3)OC[C@]4(C)C(N)=O)C(F)(F)F)cc2cc1Cl [Example 885]

The next lines start with the molecule.

SMILES	EC50 [1]	EC50 [2, 3]	EC50 [2, 4]
COc1cc(C(=O)NC[C@](O)(c2cc3c(c(-c4ccc(F)cc4)n2)OC[C@]3(CF)C(N)=O)C2CC2)cc2cn(C3CC3)nc12 [Example 1064]	< 500 nM	< 200 nM	
C[C@]1(C(N)=O)COc2c1cc([C@@](O)(CNC(=O)c1cc(Cl)c3nn(C4CC4)cc3c1)C1(F)CC1)nc2-c1ccc(F)c(F)c1F [Example 757]	< 500 nM		< 200 nM
Cc1cnc2c(OC(F)F)cc(C(=O)NC[C@](O)(c3cc4c(c(-c5ccc6c(c5)OC(F)(F)O6)n3)OC[C@@]4(C(N)=O)C(F)F)C(F)(F)F)cc2c1 [Example 1043]	< 500 nM	< 200 nM	
COc1cc(C(=O)NC[C@](O)(c2cc3c(c(-c4ccc(F)c(Cl)c4)n2)OC[C@]3(C)C(N)=O)C2(F)CC2)cc2cc(C3CC3)nn12 [Example 718]	> 500 nM		< 200 nM
NC(=O)[C@@]1(CF)COc2c1cc([C@@](O)(CNC(=O)c1cc(OC3CC3)c3ncccc3c1)C1CC1)nc2-c1ccc(F)cc1 [Example 1054]	> 500 nM	< 200 nM	
Cc1cnc2c(OC(F)F)cc(C(=O)NC[C@](O)(c3cc4c(c(-c5ccc(F)cc5)n3)OC[C@]4(C(N)=O)C(F)F)C(F)(F)F)cc2c1 [Example 1006]	> 500 nM	> 200 nM	
C[C@]1(C(N)=O)COc2c1cc([C@@](O)(CNC(=O)c1ccc3nn(C4CC4)cc3c1)C1CC1)nc2-c1cc(Br)c(F)cc1F [Example 1095]	< 500 nM	< 200 nM	
Cc1cnc2c(OC(F)F)cc(C(=O)NC[C@](O)(c3cc4c(c(-c5ccc(F)c(F)c5Cl)n3)OC[C@]4(C)C(N)=O)C3CC3)cc2c1 [Example 566]	< 500 nM		< 200 nM
C[C@]1(C(N)=O)COc2c1cc([C@@](O)(CNC(=O)c1cc(Cl)c3nn(C4CC4)cc3c1)C1CC1)nc2-c1cc(F)c(F)c(Cl)c1 [Example 790]	< 500 nM		< 200 nM
C[C@]1(C(N)=O)COc2c1cc([C@@](O)(CNC(=O)c1cc(Cl)c3nn(C4CC4)cc3c1)C1CC1)nc2-c1cc(F)c(F)cc1F [Example 1148]	< 500 nM	< 200 nM	
C[C@]1(C(N)=O)COc2c1cc([C@@](O)(CNC(=O)c1ccc(F)c(NC(=O)NC3CC3)c1)C(F)(F)F)nc2-c1ccc(F)c(Cl)c1 [Example 626]	> 500 nM		< 200 nM
COc1cc(C(=O)NC[C@](O)(c2cc3c(c(-c4ccc(F)c(Cl)c4)n2)OC[C@]3(C(N)=O)C(F)F)C(F)(F)F)cc2cc(Cl)c(C)nc12 [Example 1004]	> 500 nM	> 200 nM	
COc1cc(C(=O)NC[C@](O)(c2nc(-c3ccc(F)c(Cl)c3F)c3c(c2F)[C@@](C)(C(N)=O)CO3)C2CC2)cc2cn(C3CC3)nc12 [Example 1160]	< 500 nM	< 200 nM	
COc1cc(C(=O)NC[C@](O)(c2cc3c(c(-c4ccc(F)c(F)c4F)n2)OC[C@]3(C)C(N)=O)C(F)(F)F)cc2cc(Br)cnc12 [Example 520]	< 500 nM		< 200 nM
COc1cc(C(=O)NC[C@](O)(c2cc3c(c(-c4ccc(F)c(F)c4Cl)n2)OC[C@]3(C)C(N)=O)C2CC2)cc2cc(Cl)c(C)nc12 [Example 565]	< 500 nM		< 200 nM
Cc1cnc2c(OC(F)F)cc(C(=O)NC[C@](O)(c3cc4c(c(-c5ccc(F)c(F)c5Cl)n3)OC[C@]4(C)C(N)=O)C3(F)CC3)cc2c1 [Example 746]	< 500 nM		< 200 nM
COc1cc(C(=O)NC[C@](O)(c2cc3c(c(-c4cc(F)c(F)cc4F)n2)OC[C@]3(C)C(N)=O)C(F)(F)F)cc2cc(Cl)c(C)nc12 [Example 1140]	< 500 nM	< 200 nM	
Cc1cnc2c(OC(F)F)cc(C(=O)NC[C@](O)(c3cc4c(c(-c5ccc(F)c(Cl)c5)n3)OC[C@@]4(C(N)=O)C(F)F)C3CC3)cc2c1 [Example 1029]	< 500 nM	< 200 nM	
COc1ccc(C(=O)NC[C@](O)(c2cc3c(c(-c4ccc(F)cc4)n2)OC[C@]3(C)C(N)=O)C(F)(F)F)n2cc(C3CC3)nc12 [Example 695]	> 500 nM		< 200 nM
COc1cc(C(=O)NC[C@](O)(c2nc(-c3ccc(F)cc3)c3c(c2F)[C@@](C)(C(N)=O)CO3)C(F)(F)F)cc2cn(C(F)F)nc12 [Example 853]	< 500 nM	< 200 nM	
